From US20250144131A1, “POLYSACCHARIDE COMPOUND WITH A DEFINED MOLECULAR STRUCTURE FOR THE TREATMENT OF PULMONARY FIBROSIS” (SHENZHEN YANDAI INVESTMENT CO., LTD, priority 2023, published 2025)

Assays:
Type in all cases: in vivo, C57BL/6J mice
[1] = system: bleomycin-induced pulmonary fibrosis model; assay: General behavioral observation in bleomycin-induced pulmonary fibrosis mice; settings: oral 21 days, pirfenidone 225 mg/kg, GLP-4 low-dose 200 mg/kg
Protocol: (§1) Fifty male SPF C57BL/6J mice were randomized by weight into the normal control group, model control group, positive control group, GLP-4 low-dose group, and GLP-4 high-dose group, with 10 animals in each group. Ten animals not subjected to modeling served as the normal control group. The remaining animals were modeled by administering bleomycin via tracheal injection at 5 mg/kg, 0.1 mL per mouse, one-time administration. Starting on day 7 post-modeling, the study drug, positive drug, or solvent was administered orally at 10 mL/kg once daily for 21 consecutive days. During the experimental period, daily observations were made for each group's food intake, activity, breathing, and responsiveness; pulmonary function was tested before administration and about 24 h after the last dose. After completing pulmonary function tests, the mice were euthanized for pathological sampling.
General behavioral observation: During the trial period, daily observations were made on the animals' consumption, activity, breathing, and responsiveness.

[2] = system: bleomycin-induced pulmonary fibrosis model; assay: Lung function test (EMKA WBP) in bleomycin-induced pulmonary fibrosis mice
Protocol: as §1
Lung function: Lung function in mice was measured using the EMKA WBP animal lung function assessment system both before administration and approximately 24 h after the last dose. Measurements included inspiratory (expiratory) duration, maximum inspiratory (expiratory) volume, tidal volume, expiratory volume, relaxation time, minute ventilation, respiratory rate, end inspiratory (expiratory) pause, bronchoconstriction parameters, 50% expiratory flow, alveolar ventilation, and number of breaths.

[3] = system: bleomycin-induced pulmonary fibrosis model; assay: Pulmonary histopathology (H&E, pathology scores) in bleomycin-induced pulmonary fibrosis mice
Protocol: as §1
Pulmonary histopathology: Following lung function tests, mice were euthanized, and a laparotomy was performed. Whole-body perfusion was conducted using saline through the portal vein followed by thoracotomy and perfusion-fixation with 10% formaldehyde solution for 5 min. The trachea was then ligated, the lungs were harvested, and further fixed in formalin solution for 48 h. Hematoxylin and eosin (H&E) staining was performed to observe pathological changes.

[4] = 21 days post-dosing, pirfenidone 225 mg/kg po daily
[5] = prior to administration (one week post-modeling), pirfenidone 225 mg/kg group

`Cc1ccc(=O)n(-c2ccccc2)c1` [positive control, pirfenidone] was tested, and the “General behavior compared to the model control group” value [1] was “noticeable improvements in appetite, activity, breathing, responsiveness, and fur condition”, the “AV (alveolar ventilation)” value [2, 4] was 119.87 ± 38.33 mL and the “EEP (end expiratory pause)” value [2, 4] was 5.89 ± 0.57 ms. For the same compound, the “EF50 (50% expiratory flow)” value [2, 4] was 5.31 ± 0.91 mL/s, the “EIP (end inspiratory pause)” value [2, 4] was 18.83 ± 9.94 ms and the “EV (expiratory volume)” value [2, 4] was 0.14 ± 0.01 mL. The “MV (minute ventilation)” value [2, 4] was 64.98 ± 11.84 mL, the “PEF (peak expiratory flow)” value [2, 4] was 5.59 ± 0.86 mL/s and the “PIF (peak inspiratory flow)” value [2, 4] was 4.49 ± 0.75 mL/s. The “Penh (bronchoconstriction parameters)” value [2, 4] was 0.56 ± 0.22, the “RT (relaxation time)” value [2, 4] was 57.72 ± 22.68 ms and the “TV (tidal volume)” value [2, 4] was 0.14 ± 0.01 mL. For the same compound, the “Te (expiratory duration)” value [2, 4] was 73.20 ± 22.54 ms, the “Ti (inspiratory duration)” value [2, 4] was 79.85 ± 12.82 ms and the “n (number of breaths)” value [2, 4] was 40.22 ± 17.53. The “Lung function indices compared to the model control group” value ([2]; bleomycin mice, 21 days post-dosing, pirfenidone 225 mg/kg, GLP-4 low-dose 200 mg/kg) was “significant increases in PIF, PEF, TV, EV, MV, EF50, and alveolar ventilation (AV)”, the “AV (alveolar ventilation)” value [2, 5] was 70.49 ± 10.76 mL and the “EEP (end expiratory pause)” value [2, 5] was 5.70 ± 0.71 ms. For the same compound, the “EF50 (50% expiratory flow)” value [2, 5] was 5.68 ± 0.95 mL/s, the “EIP (end inspiratory pause)” value [2, 5] was 62.63 ± 33.56 ms and the “EV (expiratory volume)” value [2, 5] was 0.15 ± 0.02 mL. The “MV (minute ventilation)” value [2, 5] was 52.78 ± 12.68 mL, the “PEF (peak expiratory flow)” value [2, 5] was 5.94 ± 0.94 mL/s and the “PIF (peak inspiratory flow)” value [2, 5] was 4.63 ± 0.69 mL/s. For the same compound, the “Penh (bronchoconstriction parameters)” value [2, 5] was 0.44 ± 0.15, the “RT (relaxation time)” value [2, 5] was 105.6 ± 46.61 ms and the “TV (tidal volume)” value [2, 5] was 0.15 ± 0.02 mL. The “Te (expiratory duration)” value [2, 5] was 120.91 ± 48.12 ms, the “Ti (inspiratory duration)” value [2, 5] was 109.26 ± 23.25 ms and the “n (number of breaths)” value [2, 5] was 23.82 ± 4.54. The Fibrotic tissue proliferation ([3]; bleomycin mice, H&E, pirfenidone 225 mg/kg, GLP-4 low-dose 200 mg/kg) was “no fibrotic tissue proliferation” and the Pathology score ([3]; lung, pirfenidone 225 mg/kg po daily, 21 days) was 6.22 ± 3.31.
